Results from patent US10072011B2, “Substituted bridged urea analogs as sirtuin modulators” (GlaxoSmithKline Intellectual Property (No.2) Limited, priority 2014, dated 2018).
Like-named read-outs stand apart in the source and are kept apart here.

Target: T1, SIRT1 (Homo sapiens, UniProt Q96EB6)
T1 sequence (Q96EB6 1-747): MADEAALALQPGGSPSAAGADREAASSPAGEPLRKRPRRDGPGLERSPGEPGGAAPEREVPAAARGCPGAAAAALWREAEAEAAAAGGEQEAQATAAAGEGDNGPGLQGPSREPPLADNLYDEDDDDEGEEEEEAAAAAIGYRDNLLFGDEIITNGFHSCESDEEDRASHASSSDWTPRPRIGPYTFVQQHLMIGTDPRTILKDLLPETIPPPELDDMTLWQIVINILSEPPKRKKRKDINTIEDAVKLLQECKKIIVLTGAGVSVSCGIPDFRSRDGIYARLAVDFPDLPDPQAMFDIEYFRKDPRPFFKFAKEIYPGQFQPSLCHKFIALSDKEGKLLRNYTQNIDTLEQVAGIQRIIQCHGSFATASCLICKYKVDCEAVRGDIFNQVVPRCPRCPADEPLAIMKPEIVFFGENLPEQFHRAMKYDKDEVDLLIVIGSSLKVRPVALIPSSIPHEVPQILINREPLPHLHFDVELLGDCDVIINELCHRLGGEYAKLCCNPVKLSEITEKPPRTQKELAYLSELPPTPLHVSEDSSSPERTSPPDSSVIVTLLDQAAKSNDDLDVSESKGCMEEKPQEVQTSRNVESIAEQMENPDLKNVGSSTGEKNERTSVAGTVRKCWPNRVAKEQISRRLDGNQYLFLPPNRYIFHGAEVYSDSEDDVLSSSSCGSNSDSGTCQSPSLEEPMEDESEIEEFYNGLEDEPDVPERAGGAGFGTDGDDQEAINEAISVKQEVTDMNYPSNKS
Experiment: Trp mass spectrometry assay of SIRT1 activation (Ac-R-H-K-K(Ac)-W-NH2 peptide)
Format: biochemical
Conditions: for Emax: 25 min, read-out: TRP MAX RESP (percent maximum fold activation)
In short: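 Mass spectrometry read-out (OAADPR formed, or deacetylated Trp peptide) after a 25 min NAD-dependent deacetylation by E. coli-expressed His-SIRT1, stopped with formic acid.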

[1] = Trp peptide 0.5 μM, 120 μM βNAD+, 10 nM SIRT1, 25 min at 25° C., relative to control (100%)
[2] = Trp peptide 0.5 μM, 120 μM βNAD+, 10 nM SIRT1, 25 min at 25° C.

Compound	Emax [1]	TRP Activity (EC1.5, concentration of test compound that results in 150% activation of SIRT1) [2]	Emax
C[C@@H](NC(=O)c1ccc2c(n1)N(C(=O)Nc1cc3cc[nH]c3cn1)[C@H]1CCN2C1)C(F)(F)F [Example 181, (4S)—N5-(1H-pyrrolo[2,3-c]pyridin-5-yl)-N7-((R)-1,1,1-trifluoropropan-2-yl)-3,4-dihydro-1,4-methanopyrido[2,3-b][1,4]diazepine-5,7(2H)-dicarboxamide]	> 150%	A (EC1.5<1 μM)	
C[C@@H](NC(=O)c1ccc2c(n1)N(C(=O)Nc1cc(-n3ccnn3)ccn1)[C@H]1CCN2C1)C(F)(F)F [Example 182, (4S)—N5-(4-(1H-1,2,3-triazol-1-yl)pyridin-2-yl)-N7-((R)-1,1,1-trifluoropropan-2-yl)-3,4-dihydro-1,4-methanopyrido[2,3-b][1,4]diazepine-5,7(2H)-dicarboxamide]	> 150%	A (EC1.5<1 μM)	
CC(F)(F)CNC(=O)c1ccc2c(n1)N(C(=O)Nc1cc(OC[C@H](O)CO)ccn1)[C@H]1CCN2C1 [Example 183, (4S)—N7-(2,2-difluoropropyl)-N5-(4-((R)-2,3-dihydroxypropoxy)pyridin-2-yl)-3,4-dihydro-1,4-methanopyrido[2,3-b][1,4]diazepine-5,7(2H)-dicarboxamide]	> 150%	B (EC1.5 1-25 μM)	
O=C(N[C@H](c1ccccc1)C(F)(F)F)c1ccc2c(n1)N(C(=O)Nc1cc(OC[C@H](O)CO)ccn1)[C@H]1CCN2C1 [Example 184, (4S)—N5-(4-((R)-2,3-dihydroxypropoxy)pyridin-2-yl)-N7-((R)-2,2,2-trifluoro-1-phenylethyl)-3,4-dihydro-1,4-methanopyrido[2,3-b][1,4]diazepine-5,7(2H)-dicarboxamide]	> 150%	A (EC1.5<1 μM)	
Cn1ccc(=O)c(NC(=O)N2c3nc(C(=O)NCC(F)(F)F)ccc3N3CC[C@H]2C3)c1 [Example 185, (4S)—N5-(1-methyl-4-oxo-1,4-dihydropyridin-3-yl)-N7-(2,2,2-trifluoroethyl)-3,4-dihydro-1,4-methanopyrido[2,3-b][1,4]diazepine-5,7(2H)-dicarboxamide]		A (EC1.5<1 μM)	> 150%
C[C@@H](NC(=O)c1ccc2c(n1)N(C(=O)Nc1cc(OCCN)ccn1)[C@H]1CCN2C1)C(F)(F)F [Example 186, (4S)—N5-(4-(2-aminoethoxy)pyridin-2-yl)-N7-((R)-1,1,1-trifluoropropan-2-yl)-3,4-dihydro-1,4-methanopyrido[2,3-b][1,4]diazepine-5,7(2H)-dicarboxamide]	> 150%	B (EC1.5 1-25 μM)	
O=C(NCc1cccc(F)c1)c1ccc2c(n1)N(C(=O)Nc1cc(OC[C@H](O)CO)ccn1)[C@H]1CCN2C1 [Example 187, (4S)—N5-(4-((R)-2,3-dihydroxypropoxy)pyridin-2-yl)-N7-(3-fluorobenzyl)-3,4-dihydro-1,4-methanopyrido[2,3-b][1,4]diazepine-5,7(2H)-dicarboxamide]	> 150%	A (EC1.5<1 μM)	
C[C@@H](NC(=O)c1ccc2c(n1)N(C(=O)Nc1cn(C)ccc1=O)[C@H]1CCN2C1)C(F)(F)F [Example 188, (4S)—N5-(1-methyl-4-oxo-1,4-dihydropyridin-3-yl)-N7-((R)-1,1,1-trifluoropropan-2-yl)-3,4-dihydro-1,4-methanopyrido[2,3-b][1,4]diazepine-5,7(2H)-dicarboxamide]	> 150%	B (EC1.5 1-25 μM)	
